Assay results published in BindingDB's records for PubMed 10688601 (Virginia Commonwealth University, 2000).

What was measured:
Cannabinoid receptor 2 [1] = target: Cannabinoid receptor 2 (Mus musculus, UniProt P47936)
Cannabinoid receptor 2 [2] = target: T1, Cannabinoid receptor 2 (Rattus norvegicus, UniProt Q9QZN9)
T1 sequence (Q9QZN9 whole entry): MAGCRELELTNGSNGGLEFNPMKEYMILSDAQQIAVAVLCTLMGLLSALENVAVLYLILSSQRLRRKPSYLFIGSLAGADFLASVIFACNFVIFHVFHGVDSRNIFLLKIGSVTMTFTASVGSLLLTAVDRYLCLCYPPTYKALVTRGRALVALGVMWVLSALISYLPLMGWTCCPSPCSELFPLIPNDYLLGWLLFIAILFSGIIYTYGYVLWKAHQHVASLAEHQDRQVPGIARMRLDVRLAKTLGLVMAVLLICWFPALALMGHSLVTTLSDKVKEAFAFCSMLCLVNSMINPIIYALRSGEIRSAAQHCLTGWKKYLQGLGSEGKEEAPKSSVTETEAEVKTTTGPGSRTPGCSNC

Cannabinoid receptor 2 [3] = target: Cannabinoid receptor 2 (Homo sapiens, UniProt P34972)
Sequence of Cannabinoid receptor 2 (Homo sapiens, UniProt P34972) (P34972 whole entry): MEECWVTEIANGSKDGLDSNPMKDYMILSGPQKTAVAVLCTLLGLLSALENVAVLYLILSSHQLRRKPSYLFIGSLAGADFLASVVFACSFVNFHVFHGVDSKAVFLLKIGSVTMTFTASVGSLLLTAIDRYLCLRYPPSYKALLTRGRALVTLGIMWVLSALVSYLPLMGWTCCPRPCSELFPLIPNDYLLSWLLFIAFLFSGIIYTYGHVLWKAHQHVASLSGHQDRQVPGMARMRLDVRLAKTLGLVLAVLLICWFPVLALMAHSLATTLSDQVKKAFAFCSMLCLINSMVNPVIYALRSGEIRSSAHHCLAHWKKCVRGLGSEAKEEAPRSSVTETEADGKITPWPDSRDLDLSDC

Sequence of Cannabinoid receptor 2 (Mus musculus, UniProt P47936) (P47936 whole entry): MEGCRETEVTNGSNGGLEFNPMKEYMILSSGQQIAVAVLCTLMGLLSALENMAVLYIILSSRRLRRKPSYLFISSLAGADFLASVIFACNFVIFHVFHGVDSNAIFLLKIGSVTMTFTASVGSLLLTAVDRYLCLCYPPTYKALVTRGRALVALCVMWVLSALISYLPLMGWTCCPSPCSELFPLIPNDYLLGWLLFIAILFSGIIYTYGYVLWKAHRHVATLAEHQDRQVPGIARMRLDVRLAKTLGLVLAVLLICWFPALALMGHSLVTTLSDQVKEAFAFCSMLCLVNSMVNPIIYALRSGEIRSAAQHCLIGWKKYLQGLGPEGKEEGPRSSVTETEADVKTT

Compound | Ki (Cannabinoid receptor 2 [1]) | Ki (Cannabinoid receptor 2 [2]) | Ki (Cannabinoid receptor 2 [3])
CCCCCCC(C)(C)c1ccc([C@H]2C[C@@H](O)CC[C@@H]2CCCO)c(O)c1 [CP-56667 [(+)-AC],XV] | 0.73 nM | 0.64 nM | 
CCCn1c(C)c(C(=O)c2cccc3ccccc23)c2ccccc21 | 431 nM | 269 nM | 
CCCCC/C=C\C/C=C\C/C=C\C/C=C\CCCC(=O)NCCO [Arachidonoyl ethanolamide] | 1480 nM |  | 
CCCCCc1cc(O)c2c(c1)OC(C)(C)[C@@H]1CCC(C)=CC21 (stereo not given in full) [Tetrahydrocannabinol] | 27.3 nM |  | 
CCCCCCC(C)(C)c1ccc2c(c1)OC(C)(C)[C@@H]1CC=C(CO)C[C@@H]21 [JWH-051] | 0.72 nM | 3.16 nM | 0.33 nM
Cc1c(C(=O)c2cccc3ccccc23)c2cccc3c2n1[C@H](CN1CCOCC1)CO3 [WIN55212-2] | 9.46 nM |  | 
